Key:
Assay type in all cases: binding
amylin fibrils = amylin fibrils (Homo sapiens, UniProt P10997); assay: MPA of in vitro synthesized amylin; settings: buffer and plasma; FIG. 45
[1] = molecular target: T1, AA-related moieties (serum amyloid A aggregates) (Mus musculus, UniProt P05367); assay: PSR-1 bead-based capture of AA species from spleen homogenates
T1 construct: These experiments indicate that PSR1-coated beads can capture AA-related moieties; from tissue; host or cells: spleen homogenate of mice with induced AA amyloidosis
T1 sequence (P05367 20-94 limits assumed): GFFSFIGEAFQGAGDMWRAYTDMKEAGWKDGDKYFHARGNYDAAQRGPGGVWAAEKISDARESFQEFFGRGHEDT
Protocol: Amyloid enhancing factor (AEF) was extracted from amyloid-laden liver as described earlier, and used for amyloid induction in four different groups of mice. Each mouse received 20 ug of protein extract as an intravenous injection in the tail vein and systemic inflammation was stimulated by concomitant subcutaneous injection of 0.2 ml 1% silver nitrate (AgNO3). Further inflammatory stimuli were given once a week on day 7, 14 and 21. Mice were sacrificed in several time points on day 5, 9, 16 and 23. Control mice received only single silver nitrate injection and were sacrificed 16 hrs later.
10% spleen homogenates were prepared in PBS, […], using an ultra-sound tissue homogenizator. Homogenates were centrifuged at 200×g for 1 min and the supernatants were used for the PSR1 bead-based capture assay. For immunoblotting analysis the PBS-insoluble tissue pellet was solubilised in 8M urea for 24 hrs on a wheel at room temperature.
PSR1-conjugated beads were washed two times with 1 ml of TBS-TT (TBS, 1% TritonX, 1% Tween20) before incubation with 10% spleen homogenate in a total volume of 100 μl TBS-TT for 1 hr at 37° C. and under shaking at 750 rpm. […] 150 ul of eluate was aspirated from the beads and the presence of SAA/AA proteins were analysed using the mouse SAA ELISA from Tridelta Ltd. or by immunoblotting. […]

Abeta 1-40 monomer = molecular target: T2, Abeta 1-40 monomer (Homo sapiens, UniProt P05067); assay: Globulomer capture assay in CSF (Example 6): Abeta 1-40 noise; settings: Abeta 1-40 signal (noise), CSF samples
T2 construct: Abeta 1-40 monomer capture level; from tissue; host or cells: cerebrospinal fluid (matrix of the assay)
T2 sequence (P05067 672-711 limits assumed): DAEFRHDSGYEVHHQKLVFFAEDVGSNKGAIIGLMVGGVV
Protocol: A series of new potential aggregate-specific binding reagents were designed as shown below and conjugated onto magnetic Dynal M270 beads as described in Example 2. Typically 7-12 nmol of ligand (each candidate aggregate-specific binding reagent) was coated onto 1 mg of beads.
Aliquots of the beads (typically 3 ul) were added to wells of a 96 well plate, followed by sample (with or without Abeta 1-42 globulomer (an Abeta42 oligomer model) spiked in 80:20 CSF:TBSTT, typically 125 ul). The plate was sealed and incubated for 1 hour at 37° C. with shaking. The plate was washed with aqueous solutions of detergent (typically polyethylene glycol sorbitan monolaurate and n-tetradecyl-N,N-dimethyl-3-ammonio-1-propanesulfonate) to remove ubound material and the residual buffer removed. A denaturing solution (typically 0.1-0.15 N NaOH) was added to each well and the plate heated to 80° C. for 30 min with shaking. After cooling the plate to room temperature, a neutralizing buffer (typically 0.12-0.18 M NaH2PO3 in 0.4% TWEEN20,) was added and the plate was shaken briefly at room temperature. The bead eluate was analyzed using either an Aβ42-specific ELISA or the MSD® 96-Well MULTI-SPOT® Human/Rodent [4G8] Abeta Triplex Ultra-Sensitive Assay from Meso Scale Discovery (Gaithersburg, Md.). For the Aβ42-specific assay, the samples were eluted from the beads and a detection antibody (4G8 HRP) was added to a plate bearing the Aβ42-specific antibody 12F4. The plate was incubated for 1 hour, washed, the substrate was added (SuperSignal West Femto Maximum Sensitivity Substrate from Thermo Fisher, Rockville, Md.), and the luminescence was measured. The MSD plate assay was performed in a similar fashion, according to the manufacturer's protocol.
In this experiment the preferred number of charges within a given scaffold was identified. An Ala/Lys peptide framework was utilized, where the inclusion of each Lys residue increases the peptides' net charge by +1. Six hexapeptides with increasing charge (+1→+6), AAAKAA, AAKKAA, AAKKKA, AKKKKA, AKKKKK, and KKKKKK, were prepared and conjugated on the beads. The ability of these beads to capture Abeta 1-42 globulomer spiked at 1 ng/mL into CSF was tested, and the result is shown in FIG. 25. The globulomer capture level (“42 1 ng/ml” or the closed bars) was compared to the background signal of Abeta 1-42 detected in the unspiked CSF (“42 0 ng/ml”) and the background signal of Abeta 1-40 detected in unspiked CSF (“40 0 ng/ml”) or CSF spiked with AB42 oligomers “40 1 ng/ml”. The charge density, as conjugated to the magnetic beads, of each reagent evaluated in this experiment is shown below in Table 8.

amylin fibrils, sequence (P10997 34-70 limits assumed): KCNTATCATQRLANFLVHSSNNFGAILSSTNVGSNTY

With Nab-Nab-Nab-Nbn-Nab-Nbn [PSR1] the “binding to amylin fibrils over monomers” value (amylin fibrils) was “bind preferentially to in vitro-synthesized amylin fibrils over amylin monomers in both buffer (A) and plasma (B)”, the “SAA detected in eluates (sandwich ELISA)” value ([1]; 3 uL PSR1 beads, spleen homogenate with splenic AA vs untreated control) was “SAA could be detected only in the eluates from the AA-containing sample” and the “SAA detected in eluates after denaturation of input” value ([1]; denatured, buffered and undenatured AA-containing samples, FIG. 44) was “SAA could be detected only in the eluates from undenatured or buffered AA-containing samples”. The “40, 1 ng/ml average reading” value (Abeta 1-40 monomer) was 234.5 RLUs.

From US20130109581A1, “POSITIVELY CHARGED SPECIES AS BINDING REAGENTS IN THE SEPARATION OF PROTEIN AGGREGATES FROM MONOMERS” (priority 2009, published 2013)
